Data published in patent publication US20090209633A1, “Treatment of Pain With Resiniferatoxin and Related Analogs” (priority 2006, published 2009).

Biological target: T1, native TRPV1 (Rattus norvegicus, UniProt O35433)
T1 construct: RTX-induced membrane currents on native TRPV1 in embryonic DRG neurons grown in culture; endogenous in cells; host or cells: primary rat E18 DRG neurons
Assay: Single-channel currents in cell-attached patches from DRG neurons
Format: cell-based
Parameters: Open time τ4 / Closed time τ1 / Closed time τ2 / Closed time τ3 / Closed time τ4: unit not given here
Conditions: for single-channel conductance / single-channel current amplitude / Po (single-channel open probability): cell-attached; for single-channel conductance / single-channel current amplitude: RTX, capsaicin 100 nM; for Closed time τ4 / Open time τ4 / Closed time τ1 / Closed time τ2 / Closed time τ3 / Open time τ1 / Open time τ2 / Open time τ3 / Po (single-channel open probability): CAP 100 nM; for Closed time τ1 / Closed time τ2 / Closed time τ3 / Open time τ1 / Open time τ2 / Open time τ3 / Po (single-channel open probability): RTX 0.1 nM; for slope conductance, inward limb / negative potentials: between 0 and −100 mV
Text: For single-channel recording in cell-attached patches from DRG neurons, the bath solution contained (mM): potassium gluconate 140, KCl 2.5, MgCl2 1, Hepes 5 and EGTA 1.5; pH adjusted to 7.35 with NaOH. The patch pipettes were made from glass capillaries (Drummond, Microcaps), coated with Sylgard (Dow Corning, Midland, Mich., USA). For cell-attached patches, the patch pipettes were filled with a solution that contained (mM): sodium gluconate 140, NaCl 10, MgCl2 1, Hepes 5 and EGTA 1.5; pH adjusted to 7.35 with NaOH. While recording from cell-attached patches, in order to avoid differences in the driving force because of the differences in the membrane potential, the external NaCl was replaced by an equal amount of KCl in order to nullify the membrane potential. For outside-out patches, the pipette solution contained (mM): sodium gluconate 90, NaCl 10, BAPTA 10, Hepes 10, K2ATP2 and GTP 0.25; pH adjusted to 7.35 with NaOH. The bath solution contained (mM): sodium gluconate 100, KCl 2.5, MgCl2 1, Hepes 5 and EGTA 1.5; pH adjusted to 7.35 with NaOH. All the experiments were performed at room temperature (21-23° C.). Agar-bridge electrodes were used to avoid changes in junction potential. The currents were recorded using a WPC 100 (Warner Instruments) or Axopatch 2B (Axon Instruments, Union City, Calif., USA) patch-clamp amplifier. Data were filtered at 10 kHz (Axopatch 2B), digitized (VR-10B, Instrutech Corp.), and stored on videotapes. For the analysis of amplitude and open probability (Po), the data were filtered at 2.5 kHz (−3 db frequency with an 8-pole low-pass Bessel filter, Warner Instruments) and digitized at 5 kHz. For dwell-time analysis, the data were filtered at 10 kHz and digitized at 50 kHz.
Single-channel analysis. Single-channel current amplitude and Po were estimated from all-point current amplitude histograms (Channel 2 software kindly provided by Michael Smith, Australian National University, Can berra, Australia) and fitted to Gaussian densities (Origin, OriginLab Corp., Northampton, Mass., USA). For current-voltage relationships, the amplitudes were determined by fitting a Gaussian curve to an all-point histogram. Po was determined using unedited segments of data, which were typically 1-5 min long. For multiple channel patches, the mean Po was measured as nPo, where n is the number of channels in the patch. Chord conductance was measured at +60 or −60 mV. […]
Single-channel currents were idealized using a modified Viterbi algorithm (QUB software, www.qub.buffalo.edu). Dwell-time distributions were fitted with mixtures of exponential densities using a method of maximum likelihood. Additional exponential components were incorporated only if the maximum log likelihood increased more than 2 log likelihood units. (Chung et al. 1990; Qin et al. 1996; Premkumar et al. 1997.) A dead time (Td) of 50 μs was imposed retrospectively, in that, events shorter than 50 μs were considered to be a part of the adjoining sojourns.
Single-channel conductance. To further evaluate the properties of TRPV1 activation by RTX, we recorded single-channel currents from cell-attached and excised patches from DRG neurons and oocytes heterologously expressing TRPV1. All recordings were carried out in the absence of extracellular calcium to avoid tachyphylaxis and desensitization of channel activity. (Docherty et al. 1996; Caterina et al. 1997; Koplas et al. 1997.) Single-channel current activity in cell-attached patches from DRG neurons were recorded at −60 and +60 mV, as shown in FIG. 3.

T1 sequence (O35433 whole entry): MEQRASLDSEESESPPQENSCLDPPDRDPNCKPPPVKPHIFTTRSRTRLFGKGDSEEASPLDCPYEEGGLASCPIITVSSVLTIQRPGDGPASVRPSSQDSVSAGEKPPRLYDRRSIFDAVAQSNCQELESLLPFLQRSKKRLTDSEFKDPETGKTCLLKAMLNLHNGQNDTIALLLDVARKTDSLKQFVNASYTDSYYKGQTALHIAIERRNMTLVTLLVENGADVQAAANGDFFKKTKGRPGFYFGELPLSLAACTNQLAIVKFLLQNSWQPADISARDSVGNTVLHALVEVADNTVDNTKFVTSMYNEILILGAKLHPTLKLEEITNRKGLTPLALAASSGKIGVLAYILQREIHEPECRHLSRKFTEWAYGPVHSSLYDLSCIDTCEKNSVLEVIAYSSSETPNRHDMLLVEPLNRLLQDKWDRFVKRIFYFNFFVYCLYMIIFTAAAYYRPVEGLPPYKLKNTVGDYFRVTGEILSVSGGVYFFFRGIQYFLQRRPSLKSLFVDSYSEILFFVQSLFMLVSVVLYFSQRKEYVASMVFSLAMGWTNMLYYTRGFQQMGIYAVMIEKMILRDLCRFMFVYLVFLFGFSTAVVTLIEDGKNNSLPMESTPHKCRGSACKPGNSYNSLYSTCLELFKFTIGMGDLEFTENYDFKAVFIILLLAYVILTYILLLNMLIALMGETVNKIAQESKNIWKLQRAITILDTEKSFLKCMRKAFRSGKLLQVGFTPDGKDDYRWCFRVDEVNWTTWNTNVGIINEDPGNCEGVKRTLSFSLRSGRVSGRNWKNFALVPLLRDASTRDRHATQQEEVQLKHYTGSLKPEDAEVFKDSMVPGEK

COc1cc(CNC(=O)CCCC/C=C/C(C)C)ccc1O [capsaicin]
mean open time (+60 mV): 3.8 ms | single-channel conductance (+60 mV): 95±0.1 pS | single-channel current amplitude (+60 mV): 5.67±0.06 pA | Closed time τ4 (Vm +60 mV): 70.84±47 | Open time τ4 (Vm +60 mV): 14.7±2.6 | Closed time τ4 (Vm +60 mV, listed as CAP): 70.84 ± 47 | Open time τ4 (Vm +60 mV, listed as CAP): 14.7 ± 2.6 | Closed time τ1 (Vm +60 mV): 0.06±0.02 | Closed time τ2 (Vm +60 mV): 0.67±0.39 | Closed time τ3 (Vm +60 mV): 1.66±0.39 | Open time τ1 (Vm +60 mV): 0.14 ± 0.04 ms | Open time τ2 (Vm +60 mV): 0.7 ± 0.13 ms | Open time τ3 (Vm +60 mV): 3.83 ± 0.62 ms | Closed time τ1 (Vm +60 mV, listed as CAP): 0.06 ± 0.02 | Closed time τ2 (Vm +60 mV, listed as CAP): 0.67 ± 0.39 | Closed time τ3 (Vm +60 mV, listed as CAP): 1.66 ± 0.39 | Open time τ1 (Vm +60 mV, listed as CAP): 0.14 ± 0.04 ms | Open time τ2 (Vm +60 mV, listed as CAP): 0.7 ± 0.13 ms | Open time τ3 (Vm +60 mV, listed as CAP): 3.83 ± 0.62 ms | Po (single-channel open probability) (Vm +60 mV): 0.53±0.04 | Po (single-channel open probability) (Vm +60 mV, listed as CAP): 0.53 ± 0.04 | Closed time τ4 (Vm −60 mV): 30.8±12.4 | Closed time τ4 (Vm −60 mV, listed as CAP): 30.8 ± 12.4 | Closed time τ1 (Vm −60 mV): 0.13±0.02 | Closed time τ2 (Vm −60 mV): 0.79±0.12 | Closed time τ3 (Vm −60 mV): 3.47±0.59 | Open time τ1 (Vm −60 mV): 0.11 ± 0.01 ms | Open time τ2 (Vm −60 mV): 0.76 ± 0.18 ms | Open time τ3 (Vm −60 mV): 2.61 ± 0.84 ms | Closed time τ1 (Vm −60 mV, listed as CAP): 0.13 ± 0.02 | Closed time τ2 (Vm −60 mV, listed as CAP): 0.79 ± 0.12 | Closed time τ3 (Vm −60 mV, listed as CAP): 3.47 ± 0.59 | Open time τ1 (Vm −60 mV, listed as CAP): 0.11 ± 0.01 ms | Open time τ2 (Vm −60 mV, listed as CAP): 0.76 ± 0.18 ms | Open time τ3 (Vm −60 mV, listed as CAP): 2.61 ± 0.84 ms | Po (single-channel open probability) (Vm −60 mV): 0.1±0.04 | Po (single-channel open probability) (Vm −60 mV, listed as CAP): 0.1 ± 0.04 | slope conductance, inward limb / negative potentials: 41 pS | conductance level at which currents predominantly dwelled (capsaicin-induced currents): ~95 pS | mean open time (−60 mV): 1.27 ms | single-channel conductance (−60 mV): 40±1.95 pS | single-channel current amplitude (−60 mV): 2.4±0.12 pA

C=C(C)[C@]12C[C@@H](C)[C@@]34O[C@](Cc5ccccc5)(O[C@@H]1[C@@H]3C=C(COC(=O)Cc1ccc(O)c(OC)c1)C[C@]1(O)C(=O)C(C)=C[C@@H]41)O2 [RTX, resiniferatoxin]
mean open time (+60 mV): 7.9 ms | single-channel conductance (+60 mV): 100±2.2 pS | single-channel current amplitude (+60 mV): 6.02±0.14 pA | change of Po with increasing concentration (RTX 0.1 to 20 nM): did not change | Closed time τ1 (Vm +60 mV): 0.1±0.008 | Closed time τ2 (Vm +60 mV): 0.46±0.02 | Closed time τ3 (Vm +60 mV): 8.7±3.9 | Open time τ1 (Vm +60 mV): 1.6 ± 1.2 ms | Open time τ2 (Vm +60 mV): 6.58 ± 0.56 ms | Open time τ3 (Vm +60 mV): 12 ± 1 ms | Po (single-channel open probability) (Vm +60 mV): 0.98±0.02 | Closed time τ1 (Vm −60 mV): 0.05±0.007 | Closed time τ2 (Vm −60 mV): 0.12±0.005 | Closed time τ3 (Vm −60 mV): 1.1±0.26 | Open time τ1 (Vm −60 mV): 0.46 ± 0.1 ms | Open time τ2 (Vm −60 mV): 5.57 ± 2.4 ms | Open time τ3 (Vm −60 mV): 10.2 ± 1.8 ms | Po (single-channel open probability) (Vm −60 mV): 0.94±0.02 | slope conductance, outward limb / positive potentials (between 0 and +100 mV): 126 pS | slope conductance, inward limb / negative potentials: ~30 pS | Po of RTX-induced currents (cell-attached as well as outside-out patches, negative and positive potentials): ~0.9 | reversal potential of single-channel currents (recorded −100 to +100 mV): −2.9 mV | concentration that could maximally activate the receptor (single-channel recording): 0.1 to 0.2 nM | mean open time (−60 mV): 7.5 ms | single-channel conductance (−60 mV): 38.3±3.5 pS | single-channel current amplitude (−60 mV): 2.3±0.21 pA
